Reference: patent US11214803B2, “Modulators of YAP1 expression” (Ionis Pharmaceuticals, Inc., priority 2019, dated 2022)
Strand notation (5' to 3'): a small letter for the sugar, then the base; units joined by * are phosphorothioate-linked, units joined directly phosphodiester-linked; [ ] holds rarer units or linkages, { } end groups; capitals alone tell only the bases. k = constrained ethyl (cEt); [5mC] = 5-methylcytosine; d = 2'-deoxy (DNA)

Tested on: Yap1 mRNA
Assay: Antisense inhibition of human Yap1 in A-431 cells by cEt gapmers, single dose (Example 4, RTS4814)
Format: cell-based
Summary of the method: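 A-431 cells took up 3-10-3 cEt gapmers (16-mer, full phosphorothioate, 5-methylcytosines) by free uptake at 2,000 nM for about 48 h. Yap1 mRNA was quantified by qRT-PCR, normalized to total RNA (RIBOGREEN), and reported as % of untreated control.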

[1] = Table 15, A-431 cells, 5,000 cells per well, free uptake, 2,000 nM, approximately 48 hours, RTS4814, normalized to RIBOGREEN, Yap1 mRNA relative to untreated control, * = targets amplicon region of primer probe set
[2] = Yap1 mRNA remaining as percent of untreated control, 3-10-3 cEt gapmers, A-431 cells, Table 36
[3] = Table 14, A-431 cells, 5,000 cells per well, free uptake, 2,000 nM, approximately 48 hours, RTS4814, normalized to RIBOGREEN, Yap1 mRNA relative to untreated control, * = targets amplicon region of primer probe set
[4] = Yap1 mRNA remaining as percent of untreated control, 3-10-3 cEt gapmers, A-431 cells, Table 37
[5] = Table 17, A-431 cells, 5,000 cells per well, free uptake, 2,000 nM, approximately 48 hours, RTS4814, normalized to RIBOGREEN, Yap1 mRNA relative to untreated control cells
[6] = Table 16, A-431 cells, 5,000 cells per well, free uptake, 2,000 nM, approximately 48 hours, RTS4814, normalized to RIBOGREEN, Yap1 mRNA relative to untreated control cells

With “1075201 (antisense k[5mC]*kT*kT*dT*dA*dA*dA*dG*d[5mC]*d[5mC]*d[5mC]*dT*dA*kA*kT*kT) [Compound 1075201]” the “YAP1 (% UTC)” value [1] was 114 % UTC.
With “1076502 (k[5mC]*kA*kA*dA*dG*dT*dA*dA*dG*dT*dG*dA*dG*k[5mC]*k[5mC]*k[5mC]; antisense) [compound 1076502]” the “YAP1 (% UTC)” value [2] was 17 % UTC.
In the case of “1074976 (antisense kT*kT*k[5mC]*dT*dA*dT*dT*dG*dG*dA*dA*dG*dA*k[5mC]*k[5mC]*kA) [Compound 1074976]”, the “YAP1 (% UTC)” value [3] is reported as 35 % UTC.
With “1076151 (kT*kA*kT*dT*dT*dA*dT*dT*dA*dA*d[5mC]*dT*d[5mC]*kA*k[5mC]*kG; antisense) [compound 1076151]” the “YAP1 (% UTC)” value [4] was 14 % UTC.
In the case of “1074851 (antisense kA*kT*kT*dG*dT*dT*dA*dT*dG*dA*dT*dA*dG*kG*k[5mC]*kA) [Compound 1074851]”, the “YAP1 (% UTC)” value [5] is reported as 6 % UTC.
In the case of “1075169 (antisense kA*kA*kA*dA*d[5mC]*dG*dG*dA*dG*dT*dA*dA*dT*kG*k[5mC]*k[5mC]) [Compound 1075169]”, the “YAP1 (% UTC)” value [1] is reported as 39 % UTC.
With “1075872 (k[5mC]*kA*kA*dT*dT*dA*dT*dG*dA*d[5mC]*dA*dA*dA*k[5mC]*kA*kG; antisense) [Compound 1075872]” the “YAP1 (% UTC)” value [3] was 21 % UTC.
In the case of “1075926 (antisense kG*kT*kA*dG*dA*dA*d[5mC]*d[5mC]*dT*dA*dT*dA*dT*kT*kA*kT) [compound 1075926]”, the “YAP1 (% UTC)” value [2] is reported as 25 % UTC.
For “1074455 (k[5mC]*kA*kT*dT*dA*dT*dG*dT*dG*dA*d[5mC]*dT*dA*kA*kT*kG; antisense) [compound 1074455]”, the “YAP1 (% UTC)” value [4] was 67 % UTC.
For “1076055 (kA*kA*kT*dT*dA*d[5mC]*dT*dA*dA*d[5mC]*dA*dA*dT*k[5mC]*kT*k[5mC]; antisense) [compound 1076055]”, the “YAP1 (% UTC)” value [4] was 45 % UTC.
For “1074272 (antisense kT*kA*kT*dA*dG*dT*dA*dA*dA*dT*dT*dT*d[5mC]*kT*k[5mC]*k[5mC]) [Compound 1074272]”, the “YAP1 (% UTC)” value [3] was 16 % UTC.
In the case of “1074786 (kA*kA*k[5mC]*d[5mC]*dA*dT*dA*dA*dG*dT*dA*dG*dA*kT*k[5mC]*kT; antisense) [Compound 1074786]”, the “YAP1 (% UTC)” value [6] is reported as 28 % UTC.
In the case of “1075511 (k[5mC]*kA*kA*dT*dA*dT*dT*dA*dT*d[5mC]*dT*dG*dA*kG*k[5mC]*kT; antisense) [compound 1075511]”, the “YAP1 (% UTC)” value [4] is reported as 106 % UTC.
For “1074595 (antisense kT*kA*kG*dA*dA*dG*dT*dA*dG*dG*dA*dG*d[5mC]*kA*kA*kG) [Compound 1074595]”, the “YAP1 (% UTC)” value [5] was 4 % UTC.
“1076225 (kA*kT*kA*dT*dA*dA*dA*d[5mC]*d[5mC]*dT*dT*dG*d[5mC]*kT*kA*k[5mC]; antisense) [Compound 1076225]” was tested, and the “YAP1 (% UTC)” value [1] was 66 % UTC.
In the case of “1074359 (antisense kT*kT*k[5mC]*dG*dA*dG*dG*dG*dA*d[5mC]*dA*d[5mC]*dT*kG*kT*kA) [compound 1074359]”, the “YAP1 (% UTC)” value [4] is reported as 18 % UTC.
In the case of “1074400 (antisense kG*kA*kT*dT*dT*dA*dG*dA*dA*dT*dT*d[5mC]*dA*kG*kT*k[5mC]) [Compound 1074400]”, the “YAP1 (% UTC)” value [3] is reported as 42 % UTC.
With “1076385 (kA*kT*kA*dT*dA*dA*dG*dG*dG*dA*d[5mC]*dT*dT*kG*k[5mC]*kT; antisense) [Compound 1076385]” the “YAP1 (% UTC)” value [1] was 32 % UTC.
“1076416 (kA*k[5mC]*k[5mC]*dG*dA*dA*dA*dT*dG*dA*dT*dA*d[5mC]*kT*kG*kA; antisense) [Compound 1076416]” was tested, and the “YAP1 (% UTC)” value [3] was 8 % UTC.
“1075255 (kA*kA*kA*dT*dA*dT*d[5mC]*d[5mC]*dG*dT*dG*dT*d[5mC]*k[5mC]*kT*k[5mC]; antisense) [compound 1075255]” was tested, and the “YAP1 (% UTC)” value [4] was 16 % UTC.
In the case of “1075393 (k[5mC]*kT*kT*dA*dA*d[5mC]*d[5mC]*dT*dA*dT*dG*d[5mC]*d[5mC]*kA*kA*kA; antisense) [Compound 1075393]”, the “YAP1 (% UTC)” value [1] is reported as 37 % UTC.
In the case of “1075584 (kA*kA*kT*dA*dA*dT*dT*dG*dA*d[5mC]*d[5mC]*dT*dA*kG*k[5mC]*kA; antisense) [Compound 1075584]”, the “YAP1 (% UTC)” value [3] is reported as 57 % UTC.
For “1075456 (antisense kT*kT*kA*d[5mC]*dG*dA*dA*dA*dT*dG*dT*dT*dT*kA*kG*kT) [Compound 1075456]”, the “YAP1 (% UTC)” value [3] was 61 % UTC.
With “1074881 (k[5mC]*kT*kA*dA*d[5mC]*dT*d[5mC]*d[5mC]*dT*dG*d[5mC]*d[5mC]*dG*kA*kA*kG; antisense) [compound 1074881]” the “YAP1 (% UTC)” value (table after Table 37, headed TABLE 32 (gapmers targeting SEQ ID NO.: 3), A-431 cells, free uptake, 2,000 nM, approximately 48 hours, RTS4814) was 76 % UTC.
For “1076097 (k[5mC]*kA*kA*dT*dA*dA*dT*dA*dA*dA*d[5mC]*dG*dA*kT*kT*k[5mC]; antisense) [Compound 1076097]”, the “YAP1 (% UTC)” value [1] was 70 % UTC.
“1074561 (antisense kA*kA*kT*dT*d[5mC]*d[5mC]*dA*dA*dT*d[5mC]*dG*dA*dG*kA*k[5mC]*kT) [Compound 1074561]” was tested, and the “YAP1 (% UTC)” value [1] was 10 % UTC.
“1074241 (antisense kG*kA*kT*dG*dT*d[5mC]*dT*dT*dT*dG*d[5mC]*d[5mC]*dA*kT*k[5mC]*kT) [Compound 1074241]” was tested, and the “YAP1 (% UTC)” value [1] was 72 % UTC.
For “1075360 (kA*kG*kG*d[5mC]*dA*dA*d[5mC]*dA*dA*d[5mC]*dA*dT*d[5mC]*kT*kA*kA; antisense) [Compound 1075360]”, the “YAP1 (% UTC)” value [3] was 50 % UTC.
For “1075106 (antisense k[5mC]*kA*kA*dA*dT*dT*dA*dT*dA*dA*dG*dG*dT*k[5mC]*k[5mC]*kT) [Compound 1075106]”, the “YAP1 (% UTC)” value [6] was 10 % UTC.
“1074530 (k[5mC]*kT*kA*dA*dA*d[5mC]*dT*dA*d[5mC]*dT*dT*d[5mC]*dA*kA*kA*k[5mC]; antisense) [Compound 1074530]” was tested, and the “YAP1 (% UTC)” value [6] was 88 % UTC.
For “1075874 (k[5mC]*kT*kT*dA*dA*d[5mC]*dA*dA*d[5mC]*d[5mC]*d[5mC]*dT*dA*k[5mC]*kG*kA; antisense) [Compound 1075874]”, the “YAP1 (% UTC)” value [6] was 113 % UTC.
In the case of “1074211 (antisense k[5mC]*kT*kT*d[5mC]*d[5mC]*dG*dG*dA*dG*d[5mC]*d[5mC]*dT*d[5mC]*kA*kT*kG) [Compound 1074211]”, the “YAP1 (% UTC)” value [5] is reported as 67 % UTC.
“1075521 (kA*kA*kA*dT*d[5mC]*dG*dA*dG*dG*d[5mC]*dG*dA*dA*kT*k[5mC]*kT; antisense) [Compound 1075521]” was tested, and the “YAP1 (% UTC)” value [1] was 65 % UTC.
“1075937 (kA*k[5mC]*kT*dT*dA*dT*dA*dT*dT*d[5mC]*dT*d[5mC]*dT*k[5mC]*k[5mC]*kG; antisense) [Compound 1075937]” was tested, and the “YAP1 (% UTC)” value [1] was 36 % UTC.
“1074336 (antisense k[5mC]*k[5mC]*kA*dG*dT*dG*dT*dT*dG*dG*dT*dA*dA*k[5mC]*kT*kG) [Compound 1074336]” was tested, and the “YAP1 (% UTC)” value [3] was 97 % UTC.
In the case of “1076162 (kA*kT*kT*dT*dA*d[5mC]*dT*dT*dG*dG*d[5mC]*dA*dA*k[5mC]*kT*k[5mC]; antisense) [Compound 1076162]”, the “YAP1 (% UTC)” value [6] is reported as 9 % UTC.
“1075074 (antisense kT*kA*kT*dA*dG*dT*dA*dA*dG*dA*d[5mC]*dT*dA*kA*kT*k[5mC]) [Compound 1075074]” was tested, and the “YAP1 (% UTC)” value [6] was 105 % UTC.
“1075072 (antisense kT*k[5mC]*k[5mC]*dG*dG*dG*dT*dA*dA*dA*dT*dA*dT*k[5mC]*kT*k[5mC]) [Compound 1075072]” was tested, and the “YAP1 (% UTC)” value [3] was 37 % UTC.
“1075491 (antisense kG*kA*k[5mC]*dG*dG*dA*dA*dG*dT*dT*dG*d[5mC]*dA*kA*kG*kG) [Compound 1075491]” was tested, and the “YAP1 (% UTC)” value [5] was 93 % UTC.
With “1074627 (antisense k[5mC]*k[5mC]*kT*dG*dT*dT*dA*dT*dG*dA*dA*d[5mC]*d[5mC]*k[5mC]*kT*kT) [Compound 1074627]” the “YAP1 (% UTC)” value [5] was 3 % UTC.
In the case of “1075191 (kA*k[5mC]*kG*dG*dG*dA*dA*dA*dG*dA*dA*dA*dG*kG*k[5mC]*k[5mC]; antisense) [compound 1075191]”, the “YAP1 (% UTC)” value [4] is reported as 83 % UTC.
In the case of “1075190 (kT*kA*kT*d[5mC]*dA*dA*dG*dG*dA*dT*dT*d[5mC]*dA*kG*kT*kA; antisense) [compound 1075190]”, the “YAP1 (% UTC)” value [2] is reported as 45 % UTC.
In the case of “1074615 (DNA kT*kT*k[5mC]*dA*dT*dA*dG*d[5mC]*dT*dT*dA*dT*dA*kT*kT*kG; antisense) [compound 1074615]”, the “YAP1 (% UTC)” value [4] is reported as 8 % UTC.
“1075523 (kA*kA*kT*dT*dA*dA*dG*dG*dG*d[5mC]*d[5mC]*d[5mC]*dA*k[5mC]*kA*kA; antisense) [Compound 1075523]” was tested, and the “YAP1 (% UTC)” value [5] was 78 % UTC.
With “1074114 (kG*kA*kA*d[5mC]*dT*dT*dT*dT*dT*d[5mC]*d[5mC]*d[5mC]*dT*k[5mC]*k[5mC]*kA; antisense) [Compound 1074114]” the “YAP1 (% UTC)” value [6] was 30 % UTC.
With “1075447 (antisense k[5mC]*kA*k[5mC]*dT*dA*dT*dA*dA*dA*dT*d[5mC]*d[5mC]*dT*k[5mC]*kA*kT) [compound 1075447]” the “YAP1 (% UTC)” value [4] was 96 % UTC.
In the case of “1075479 (kG*kA*k[5mC]*dA*dA*dT*dA*dA*dA*dT*d[5mC]*dT*dG*k[5mC]*k[5mC]*kT; antisense) [compound 1075479]”, the “YAP1 (% UTC)” value [4] is reported as 77 % UTC.
“1074560 (antisense k[5mC]*k[5mC]*kA*dA*dT*d[5mC]*dG*dA*dG*dA*d[5mC]*dT*dT*kA*kA*kA) [Compound 1074560]” was tested, and the “YAP1 (% UTC)” value [3] was 3 % UTC.
For “1076386 (kA*kG*kT*dT*dA*dT*dA*dA*d[5mC]*dA*dG*dT*dG*kT*kA*kA; antisense) [Compound 1076386]”, the “YAP1 (% UTC)” value [6] was 7 % UTC.
